The values below come from patent US8318914B2, “Elongases and methods for producing polyunsaturated fatty acids in transgenic organisms” (priority 2007, dated 2012).

Structures are written as SMILES. Read-outs that look alike come from different tables or passages of the source.

For assay [1], the system named is D9Elo(Ro). In kind it is cell-based, Rhizopus oryzae. The note with it: 250 μM fatty acid fed to transformed yeast INVSC-1, 12 h induction medium. How it is done: Positive colonies were identified by PCR. […] In parallel, the empty vector pYES2.1/V5-His-TOPO was transformed in the abovedescribed manner into competent yeast cells of the strain INVSC-1. […] The specificity and activity of the gene to be characterized can be determined with reference to the added fatty acids.
(§1) The yeast cells from the main cultures were harvested by centrifugation (100×g, 5 min, 20° C.) and washed with 100 mM NaHCO3, pH 8.0 to remove residual medium and fatty acids. Starting with the yeast cell sediments, fatty acid methyl esters (FAMEs) were prepared by acid methanolysis. To this end, the cell sediments were incubated for one hour at 80° C. together with 2 ml of 1 N methanolic sulfuric acid and 2% (v/v) of dimethoxypropane. The FAMEs were extracted twice with petroleum ether (PE). To remove nonderivatized fatty acids, the organic phases were washed in each case once with 2 ml of 100 mM NaHCO3, pH 8.0 and 2 ml of distilled water. Thereafter, the PE phases were dried with Na2SO4, evaporated under argon and taken up in 100 μl of PE. […] The conditions for the GLC analysis are as follows: the oven temperature was programmed from 50° C. to 250° C. with an increment of 5° C./min and finally 10 min at 250° C. (holding).
(§2) The signals are identified by comparing the retention times with corresponding fatty acid standards (Sigma). […] Biochem. Biophys.

The test system of assay [2] is yeast strain INVSC-1 with empty vector pYES2.1/V5-His-TOPO. As to the kind of experiment: Vector control of Example 5: yeast with empty vector pYES2.1/V5-His-TOPO fed fatty acids. Format: cell-based. The note with it: 250 μM fatty acid fed to yeast INVSC-1, 12 h induction medium. Here is the method: Plasmid pYES-D9Elo(Ro) was transformed into the yeast strain INVSC-1 (Invitrogen) following the manufacturer's instructions and selected on plates with DOB-U agar on the basis of uracil auxotrophy. Positive colonies were identified by PCR. To this end, in each case 1 μl of defrosted cells, 200 μM dNTPs, 2.5 U Taq polymerase and 100 pmol of each primer were used to carry out in a total volume of 50 μl. The PCR conditions were as follows: first denaturation at 95° C. for 5 minutes, followed by 30 cycles of 30 seconds at 94° C., 1 minute at 55° C. and 2 minutes at 72° C., and a last elongation step for 10 minutes at 72° C. In parallel, the empty vector pYES2.1/V5-His-TOPO was transformed in the abovedescribed manner into competent yeast cells of the strain INVSC-1. Yeast cells with the plasmid pYES-D9Elo(Ro) and pYES2.1/V5-His-TOPO were incubated for 12 h in liquid DOB-U medium at 28° C., 200 rpm, and then for a further 12 h in induction medium (DOB-U+2% (w/v) galactose+2% (w/v) raffinose) and 250 μM of fatty acids added to the medium. The specificity and activity of the gene to be characterized can be determined with reference to the added fatty acids.
The yeast cells from the main cultures were harvested by centrifugation (100×g, 5 min, 20° C.) and washed with 100 mM NaHCO3, pH 8.0 to remove residual medium and fatty acids. Starting with the yeast cell sediments, fatty acid methyl esters (FAMEs) were prepared by acid methanolysis. To this end, the cell sediments were incubated for one hour at 80° C. together with 2 ml of 1 N methanolic sulfuric acid and 2% (v/v) of dimethoxypropane. The FAMEs were extracted twice with petroleum ether (PE). To remove nonderivatized fatty acids, the organic phases were washed in each case once with 2 ml of 100 mM NaHCO3, pH 8.0 and 2 ml of distilled water. Thereafter, the PE phases were dried with Na2SO4, evaporated under argon and taken up in 100 μl of PE. The samples were separated on a DB-23 capillary column (30 m, 0.25 mm, 0.25 μm, Agilent) in a Hewlett-Packard 6850 gas chromatograph equipped with flame ionization detector. The conditions for the GLC analysis are as follows: the oven temperature was programmed from 50° C. to 250° C. with an increment of 5° C./min and finally 10 min at 250° C. (holding).
The signals are identified by comparing the retention times with corresponding fatty acid standards (Sigma). The methodology is described for example in Napier and Michaelson, 2001, Lipids. 36(8):761-766; Sayanova et al., 2001, Journal of Experimental Botany. 52(360):1581-1585, Sperling et al., 2001, Arch. Biochem. Biophys. 388(2):293-298 and Michaelson et al., 1998, FEBS Letters. 439(3):215-218.

For assay [3], the system named is D6Elo(Pir). The experiment in a line: Yeast feeding assay: elongation of fed fatty acids by yeast expressing pYES-D6Elo(Pir), GC analysis of FAMEs. Format: cell-based, Pythium irregulare. The note with it: for Elongation efficiency in percent, pYES-D6Elo(Pir): 250 μM fatty acid fed to transformed yeast INVSC-1, 12 h induction medium, (area product/area substrate + product)*100. How it is done: (§3) Plasmid pYES-d6Elo(Pir) was then transformed into the yeast strain INVSC-1 (Invitrogen) following the manufacturer's instructions and selected on plates with DOB-U agar on the basis of uracil auxotrophy. Positive colonies were identified by PCR. To this end, in each case 1 μl of defrosted cells, 200 μM dNTPs, 2.5 U Taq-polymerase and 100 pmol of each primer were used to carry out in a total volume of 50 μl. The PCR conditions were as follows: first denaturation at 95° C. for 5 minuten, followed by 30 cycles of 30 seconds at 94° C., 1 minute at 55° C. and 2 minutes at 72° C., and a last elongation step for 10 minutes at 72° C. In parallel, the empty vector pYES2.1/V5-His-TOPO was transformed in the abovedescribed manner into competent yeast cells of the strain INVSC-1. Yeast cells with the plasmid pYES-d6Elo(Pir) and pYES2.1/V5-His-TOPO, respectively, were incubated for 12 h in liquid DOB-U medium at 28° C., 200 rpm, and then for a further 12 h in induction medium (DOB-U+2% (w/v) galactose+2% (w/v) raffinose) and 250 μM of fatty acids added to the medium. The specificity and activity of the gene to be characterized can be determined with reference to the added fatty acids.
as §1, §2
(§4) Table 3 describes the reaction of fatty acids by the plasmids which had been introduced into the yeasts. The conversion rates for the various exogenously added fatty acids are indicated in percent elongation efficiency. The blank vector pYES2.1/V5-His-TOPO acts as control for the activity of the gene sequence D6Elo(Pir). Fatty acids which have been formed in the yeasts with the vector pYES-D6Elo(Pir), but not in yeasts with the vector pYES2.1/V5-His-TOPO, can be attributed to the activity of the D6Elo(Pir) translation product.

Assay [4] deals with yeast strain INVSC-1 with empty vector pYES2.1/V5-His-TOPO. As to the kind of experiment: Vector control of Example 4: yeast with empty vector pYES2.1/V5-His-TOPO fed fatty acids. In kind it is cell-based. The note with it: blank vector control; 250 μM fatty acid fed to yeast INVSC-1, 12 h induction medium. How it is done:
as §3, §1, §2, §4

The test system of assay [5] is D5Elo(Eg). Format: cell-based, Euglena gracilis.
Protocol: Plasmid pYES-D5Elo(Eg) was then transformed into the yeast strain INVSC-1 (Invitrogen) following the manufacturer's instructions and selected on plates with DOB-U agar on the basis of uracil auxotrophism. […] In parallel, the empty vector pYES2.1/V5-His-TOPO was transformed in the abovedescribed manner into competent yeast cells of the strain INVSC-1. Yeast cells with the plasmid pYES-D5Elo(Eg) and pYES2.1/V5-His-TOPO were incubated for 12 h in liquid DOB-U medium at 28° C., 200 rpm, and then for a further 12 h in induction medium (DOB-U+2% (w/v) galactose+2% (w/v) raffinose) and 250 μM of fatty acids added to the medium. The specificity and activity of the gene to be characterized can be determined with reference to the added fatty acids. […]
The substrate specificity of D5Elo(Eg) [SEQ ID NO: 8] was determined after expression and feeding of various fatty acids (FIG. 2). […] In FIG. 2A, yeasts were analyzed which had not been fed exogenously added fatty acids. […] In FIG. 2C, the yeast cells were analyzed after transformation with plasmid pYES-D5Elo(Eg) and feeding the fatty acid 20:4Δ5,8,11,14. […] In FIG. 2D, the yeast cells were analyzed after transformation with plasmid pYES-D5Elo(Eg) and feeding the fatty acid 20:5Δ5,8,11,14,17.
In assay [6] the test system is yeast strain INVSC-1 with empty vector pYES2.1/V5-His-TOPO. The experiment in a line: Vector control of Example 6: yeast with empty vector pYES2.1/V5-His-TOPO fed fatty acids. Format: cell-based. The note with it: 250 μM fatty acid fed to yeast INVSC-1, 12 h induction medium. How it is done:
Plasmid pYES-D5Elo(Eg) was then transformed into the yeast strain INVSC-1 (Invitrogen) following the manufacturer's instructions and selected on plates with DOB-U agar on the basis of uracil auxotrophism. Positive colonies were identified by PCR. To this end, in each case 1 μl of defrosted cells, 200 μM dNTPs, 2.5 U Taq polymerase and 100 pmol of each primer were used to carry out in a total volume of 50 μl. The PCR conditions are as follows: first denaturation at 95° C. for 5 minutes, followed by 30 cycles of 30 seconds at 94° C., 1 minute at 55° C. and 2 minutes at 72° C., and a last elongation step for 10 minutes at 72° C. In parallel, the empty vector pYES2.1/V5-His-TOPO was transformed in the abovedescribed manner into competent yeast cells of the strain INVSC-1. Yeast cells with the plasmid pYES-D5Elo(Eg) and pYES2.1/V5-His-TOPO were incubated for 12 h in liquid DOB-U medium at 28° C., 200 rpm, and then for a further 12 h in induction medium (DOB-U+2% (w/v) galactose+2% (w/v) raffinose) and 250 μM of fatty acids added to the medium. The specificity and activity of the gene to be characterized can be determined with reference to the added fatty acids.
The yeast cells from the main cultures were harvested by centrifugation (100×g, 5 min, 20° C.) and washed with 100 mM NaHCO3, pH 8.0 to remove residual medium and fatty acids. […]

`CCCCCC/C=C\CCCCCCCC(=O)O` [16:1A9]: in assay [1], the “Elongation efficiency as a percentage, D9Elo(Ro)” value is given as 36.6%. For the same molecule, the “Elongation efficiency as a percentage, pYes2.1/V5-His-TOPO” value in assay [2] is listed as 2.4%.
As to `CCCCCCCC/C=C\CCCCCCCC(=O)O` [18:1Δ9, oleic acid], the “Elongation efficiency as a percentage, D9Elo(Ro)” value in assay [1] worked out at 8.3%. The “Elongation efficiency as a percentage, pYes2.1/V5-His-TOPO” value in assay [2] turned out to be 0.0%.
On to `CCCCCC/C=C\CCCCCCCCCC(=O)O` [18:1Δ11, cis-vaccenic acid], for which the “Elongation efficiency in percent, pYES-D6Elo(Pir)” value in assay [3] is given as 28.6%. For the same molecule, the “Elongation efficiency in percent, pYES2.1/V5-His-TOPO” value in assay [4] was 0.0%.
With `CCCCC/C=C\C/C=C\CCCCCCCC(=O)O` [18:2Δ9, 12, linoleic acid], in assay [3], the “Elongation efficiency in percent, pYES-D6Elo(Pir)” value turned out to be 11.1%. Besides, in assay [4], the “Elongation efficiency in percent, pYES2.1/V5-His-TOPO” value was found to be 1.1%. Moreover, the “Elongation efficiency as a percentage, D9Elo(Ro)” value in assay [1] came out at 19.3%. The “Elongation efficiency as a percentage, pYes2.1/V5-His-TOPO” value in assay [2] is given as 0.0%.
In the case of `CCCCC/C=C\C/C=C\C/C=C\CCCCC(=O)O` [18:3Δ6, 9, 12, γ-linolenic acid], in assay [3], the “Elongation efficiency in percent, pYES-D6Elo(Pir)” value worked out at 27.1%. In addition, the “Elongation efficiency in percent, pYES2.1/V5-His-TOPO” value in assay [4] worked out at 1.3%. For the same molecule, in assay [5], the “Elongation efficiency as a percentage, D5Elo(EG)” value is given as 2.9%. The “Elongation efficiency as a percentage, pYes2.1/V5-His-TOPO” value in assay [6] is on record as 0.9%.
Consider `CC/C=C\C/C=C\C/C=C\CCCCCCCC(=O)O` [18:3Δ9, 12, 15, linolenic acid], for which the “Elongation efficiency in percent, pYES-D6Elo(Pir)” value in assay [3] is 19.1%. For the same molecule, the “Elongation efficiency in percent, pYES2.1/V5-His-TOPO” value in assay [4] stood at 1.4%. Moreover, the “Elongation efficiency as a percentage, D9Elo(Ro)” value in assay [1] was 49.3%. Further, the “Elongation efficiency as a percentage, pYes2.1/V5-His-TOPO” value in assay [2] was 0.0%.
Turning to `CC/C=C\C/C=C\C/C=C\C/C=C\CCCCC(=O)O` [18:4Δ6, 9, 12, 15, stearidonic acid], in assay [3], the “Elongation efficiency in percent, pYES-D6Elo(Pir)” value was determined as 38.7%. For the same molecule, the “Elongation efficiency in percent, pYES2.1/V5-His-TOPO” value in assay [4] amounted to 1.2%.
Consider `CCCCC/C=C\C/C=C\C/C=C\C/C=C\CCCC(=O)O` [20:4Δ5, 8, 11, 14, arachidonic acid], for which the “Elongation efficiency in percent, pYES-D6Elo(Pir)” value in assay [3] was 6.7%. Also, the “Substrate preference of D6Elo(Pir), in words” value in assay [3] (yeast feeding, summary of Table 3) is “Less activity”. Besides, the “Elongation efficiency in percent, pYES2.1/V5-His-TOPO” value in assay [4] was determined as 0.0%. Also, the “Elongation efficiency as a percentage, D5Elo(EG)” value in assay [5] (250 μM fatty acid fed to transformed yeast INVSC-1, 12 h induction medium) is given as 46.1%. In addition, the “Elongation efficiency as a percentage, pYes2.1/V5-His-TOPO” value in assay [6] was determined as 0.0%.
